According to patent publication US11179400B2, “Heterocyclic compounds as RSV inhibitors” (priority 2019, dated 2021):
Like-named read-outs stand apart in the source and are kept apart here.

System: Human RSV-A (“Long” strain)
Assay: RSV in vitro cytoprotection assay in HEp-2 cells (ATPlite read-out)
Format: cell-based
Settings: human respiratory syncytial virus
From the text: RSV is a single stranded negative sense RNA virus that causes respiratory tract infections which can be dangerous to infants, the elderly, and immunosuppressed individuals. Currently there is no vaccine, and therapeutic options are both costly and of limited effectiveness. These approved treatments are Ribavirin, and Palivizumab/Synagis (a monoclonal antibody). RSV has two genotypes, A and B, which differ primarily in the structure of the virus' surface “G” attachment protein. Our current primary screen focusses on RSV-A and uses an in vitro cytoprotection assay where compounds are added in 2-fold dilutions to cells which are then subjected to fully replicative viral particles. Cell viability is measured several days later along with separate measurements of compound cytotoxicity. This report focuses on the results of our most recent screening of compounds.
HEp-2 cells, (originally derived from tumors grown in irradiated-cortisonised weanling rats that had been injected with epidermoid carcinoma tissue from a person's larynx, but later found to be indistinguishable from HeLa cells by PCR DNA analysis), were used for the culturing of genotype A, “Long” strain RSV. Flasks were inoculated with RSV and viral stocks were collected once cytopathic effect (CPE) was greater than 90%. Viral stocks in 25% sucrose media were snap frozen using liquid nitrogen to increase viral stability. Viral stock titers were quantified by tissue culture infectious dose 50% (TCID50) using 8,000 cells per well and 3-fold viral dilutions across a 96-well plate, cultured for 4 days.
Following extensive parameter testing, the final assay is run as follows: HEp-2 cells are seeded into the inner 60 wells of a 96-well plate at 8,000 cells per well in a volume of 50 μL using Growth Media (DMEM without phenol red, 1% L-Glut, 1% Penn/Strep, 1% nonessential amino acids, 10% FBS). 2-Fold serial dilutions of control and test compounds are added to the wells in duplicate in a total volume of 25 μL. Viral stock is then added to the wells in a volume of 25 μL, bringing the total volume of each well to 100 μL. Each 96-well plate has a control column of 6 wells with cells and virus but no compound (negative control, max CPE), a column with cells but no compound or virus (positive control, minimum CPE), and a column with no cells or virus or compound (background plate/reagent control). The control wells with cells but no virus are given an additional 25 μL of growth media containing an equal quantity of sucrose as those wells receiving the viral stock in order to keep consistent in media and volume conditions. The outer wells of the plate are filled with 125 μL of growth media to act as a thermal and evaporative moat around the test wells. Following a 4-day incubation period, the plates are read using ATPlite (50 uL added per well), which quantifies the amount of ATP (a measure of cell health) present in each well. Assay plates are read using the Envision luminometer. In parallel, cytotoxicity is examined on an additional 96-well plate treated in an identical manner, but substituting the 25 μL of viral stock for 25 μL of growth media. […] EC50 ranges are as follows: A<0.01 μM; B 0.01-0.05 μM; C>0.05 μM.

[1] = 96 h, HEp-2 cells, genotype A “Long” strain RSV, 4-day incubation, ATPlite, read-out: Human RSV-A (“Long” strain) EC50

| EC50 [1] | SMILES | EC50 (HEp-2) |
| --- | --- | --- |
| < 10 nM | Cc1cnc(N2CC3(CCOCC3)C2)c(C(=O)Nc2ccc(C(=O)N3CCC(c4ccc(C(=O)Nc5c(C)cccc5F)cc4)=Cc4ccccc43)cc2)c1 [Example 16] | – |
| < 10 nM | Cc1cnc(N2CC3(CCOCC3)C2)c(C(=O)Nc2ccc(C(=O)N3CCC(c4ccc(C(=O)NC5CC5)cc4)=Cc4ccccc43)cc2)c1 [Example 15] | – |
| 10 to 50 nM | Cc1ccc(C(=O)Nc2ccc(C(=O)N3CCC(c4ccc(C(=O)Nc5c(C)cccc5F)s4)=Cc4ccccc43)cc2)c(N2CC3(CCOCC3)C2)n1 [Example 8] | – |
| < 10 nM | Cc1cnc(N2CC3(CCOCC3)C2)c(C(=O)Nc2ccc(C(=O)N3CCC(c4ccc(C(=O)Nc5c(F)cccc5F)s4)=Cc4ccccc43)cc2)c1 [Example 2] | – |
| < 10 nM | Cc1ccc(C(=O)Nc2ccc(C(=O)N3CCC(c4ccc(C(=O)NC5CCC5)s4)=Cc4ccccc43)cc2)c(N2CC3(CCOCC3)C2)n1 [Example 10] | – |
| < 10 nM | Cc1cnc(N2CC3(CCOCC3)C2)c(C(=O)Nc2ccc(C(=O)N3CCC(c4ccc(C(=O)NC5CC5)s4)=Cc4ccccc43)cc2)c1 [Example 1] | – |
| < 10 nM | Cc1cnc(N2CC3(CCOCC3)C2)c(C(=O)Nc2ccc(C(=O)N3CCC(c4ccc(C(=O)NC5CCC5)s4)=Cc4ccccc43)cc2)c1 [Example 3] | – |
| – | O=C(Nc1ccccc1F)N[C@H]1N=C(c2ccccc2)c2ccccc2NC1=O [RSV-604, reference compound] | ~2400 nM |
| 10 to 50 nM | Cc1cnc(N2CC3(CCOCC3)C2)c(C(=O)Nc2ccc(C(=O)N3CCC(c4ccc(C(=O)Nc5c(C)cccc5F)s4)=Cc4ccccc43)cc2)c1 [Example 6] | – |
| 10 to 50 nM | Cc1ccc(C(=O)Nc2ccc(C(=O)N3CCC(c4ccc(C(=O)NC5CC(F)(F)C5)s4)=Cc4ccccc43)cc2)c(N2CC3(CCOCC3)C2)n1 [Example 9] | – |
| 10 to 50 nM | Cc1ccc(C(=O)Nc2ccc(C(=O)N3CCC(c4ccc(C(=O)NC56CC(C5)C6)s4)=Cc4ccccc43)cc2)c(N2CC3(CCOCC3)C2)n1 [Example 11] | – |
| < 10 nM | Cc1cnc(N2CC3(CCOCC3)C2)c(C(=O)Nc2ccc(C(=O)N3CCC(c4ccc(C(=O)NC5CC(F)(F)C5)s4)=Cc4ccccc43)cc2)c1 [Example 4] | – |
| 10 to 50 nM | Cc1cnc(N2CC3(CCOCC3)C2)c(C(=O)Nc2ccc(C(=O)N3CCC(c4cc(C(=O)NC5CC5)cs4)=Cc4ccccc43)cc2)c1 [Example 12] | – |
| > 50 nM | CC1=C(c2ccc(C(=O)Nc3c(C)cccc3F)s2)CCN(C(=O)c2ccc(NC(=O)c3cc(C)cnc3N3CC4(CCOCC4)C3)cc2)c2ccccc21 [Example 14] | – |
| > 50 nM | CC1=C(c2ccc(C(=O)NC3CC3)s2)CCN(C(=O)c2ccc(NC(=O)c3cc(C)cnc3N3CC4(CCOCC4)C3)cc2)c2ccccc21 [Example 13] | – |
| 10 to 50 nM | Cc1ccc(C(=O)Nc2ccc(C(=O)N3CCC(c4ccc(C(=O)Nc5c(F)cccc5F)s4)=Cc4ccccc43)cc2)c(N2CC3(CCOCC3)C2)n1 [Example 7] | – |
| 10 to 50 nM | Cc1cnc(N2CC3(CCOCC3)C2)c(C(=O)Nc2ccc(C(=O)N3CCC(c4ccc(C(=O)NC56CC(C5)C6)s4)=Cc4ccccc43)cc2)c1 [Example 5] | – |
